Experimental data published in ChEMBL document CHEMBL4507257, “Data for DCP probe ABT-100” (2021).

How the values were obtained:
[1] = test system: Tyrosine-protein kinase ABL1 (Homo sapiens), P00519 [H396P]; conditions: Compound concentration 1000.0 nM
[2] = target: Tyrosine-protein kinase ABL1 (Homo sapiens) (UniProt P00519); conditions: Compound concentration 1000.0 nM
[3] = target: Activin receptor type-1 (Homo sapiens) (UniProt Q04771); conditions: Compound concentration 1000.0 nM
[4] = target: Atypical kinase COQ8B, mitochondrial (Homo sapiens) (UniProt Q96D53); conditions: Compound concentration 1000.0 nM
[5] = target: RAC-alpha serine/threonine-protein kinase (Homo sapiens) (UniProt P31749); conditions: Compound concentration 1000.0 nM
Aurora kinase B = Aurora kinase B (Homo sapiens, UniProt Q96GD4); conditions: Compound concentration 1000.0 nM
[6] = target: Protein-tyrosine kinase 6 (Homo sapiens) (UniProt Q13882); conditions: Compound concentration 1000.0 nM
[7] = target: Cyclin-dependent kinase 9 (Homo sapiens) (UniProt P50750); conditions: Compound concentration 1000.0 nM
[8] = target: Dual specificity protein kinase CLK4 (Homo sapiens) (UniProt Q9HAZ1); conditions: Compound concentration 1000.0 nM
[9] = target: Eukaryotic translation initiation factor 2-alpha kinase 1 (Homo sapiens) (UniProt Q9BQI3); conditions: Compound concentration 1000.0 nM
[10] = target: Ephrin type-A receptor 6 (Homo sapiens) (UniProt Q9UF33); conditions: Compound concentration 1000.0 nM
[11] = target: Ephrin type-B receptor 3 (Homo sapiens) (UniProt P54753); conditions: Compound concentration 1000.0 nM
[12] = target: Mitogen-activated protein kinase 7 (Homo sapiens) (UniProt Q13164); conditions: Compound concentration 1000.0 nM
[13] = target: Fibroblast growth factor receptor 3 (Homo sapiens) (UniProt P22607); conditions: Compound concentration 1000.0 nM
[14] = target: Tyrosine-protein kinase Fgr (Homo sapiens) (UniProt P09769); conditions: Compound concentration 1000.0 nM
[15] = test system: Receptor-type tyrosine-protein kinase FLT3 (Homo sapiens), P36888 [UNDEFINED MUTATION]; conditions: Compound concentration 1000.0 nM
[16] = target: Homeodomain-interacting protein kinase 3 (Homo sapiens) (UniProt Q9H422); conditions: Compound concentration 1000.0 nM
[17] = target: Insulin receptor-related protein (Homo sapiens) (UniProt P14616); conditions: Compound concentration 1000.0 nM
[18] = target: Interleukin-1 receptor-associated kinase 1 (Homo sapiens) (UniProt P51617); conditions: Compound concentration 1000.0 nM
[19] = target: Tyrosine-protein kinase JAK2 (Homo sapiens) (UniProt O60674); conditions: Compound concentration 1000.0 nM
[20] = target: LIM domain kinase 2 (Homo sapiens) (UniProt P53671); conditions: Compound concentration 1000.0 nM
[21] = target: Tyrosine-protein kinase Lyn (Homo sapiens) (UniProt P07948); conditions: Compound concentration 1000.0 nM
[22] = target: Mitogen-activated protein kinase kinase kinase 2 (Homo sapiens) (UniProt Q9Y2U5); conditions: Compound concentration 1000.0 nM
[23] = target: Mitogen-activated protein kinase kinase kinase 4 (Homo sapiens) (UniProt Q9Y6R4); conditions: Compound concentration 1000.0 nM
[24] = target: Dual specificity mitogen-activated protein kinase kinase 2 (Homo sapiens) (UniProt P36507); conditions: Compound concentration 1000.0 nM
[25] = target: Mitogen-activated protein kinase kinase kinase 11 (Homo sapiens) (UniProt Q16584); conditions: Compound concentration 1000.0 nM
[26] = target: Serine/threonine-protein kinase 26 (Homo sapiens) (UniProt Q9P289); conditions: Compound concentration 1000.0 nM
[27] = target: Muscle, skeletal receptor tyrosine-protein kinase (Homo sapiens) (UniProt O15146); conditions: Compound concentration 1000.0 nM
[28] = target: Serine/threonine-protein kinase Nek10 (Homo sapiens) (UniProt Q6ZWH5); conditions: Compound concentration 1000.0 nM
[29] = target: Serine/threonine-protein kinase Nek3 (Homo sapiens) (UniProt P51956); conditions: Compound concentration 1000.0 nM
[30] = target: Mitogen-activated protein kinase 14 (Homo sapiens) (UniProt Q16539); conditions: Compound concentration 1000.0 nM
[31] = target: Mitogen-activated protein kinase 11 (Homo sapiens) (UniProt Q15759); conditions: Compound concentration 1000.0 nM
[32] = target: Cyclin-dependent kinase 2 homolog (Plasmodium falciparum (isolate 3D7)) (UniProt P61075); conditions: Compound concentration 1000.0 nM
[33] = test system: Phosphatidylinositol 4,5-bisphosphate 3-kinase catalytic subunit alpha isoform (Homo sapiens), P42336 [M1043I]; conditions: Compound concentration 1000.0 nM
[34] = target: Phosphatidylinositol 4-phosphate 5-kinase type-1 alpha (Homo sapiens) (UniProt Q99755); conditions: Compound concentration 1000.0 nM
[35] = target: Serine/threonine-protein kinase N2 (Homo sapiens) (UniProt Q16513); conditions: Compound concentration 1000.0 nM
[36] = test system: Proto-oncogene tyrosine-protein kinase receptor Ret (Homo sapiens), P07949 [V804L]; conditions: Compound concentration 1000.0 nM
[37] = target: Serine/threonine-protein kinase Sgk3 (Homo sapiens) (UniProt Q96BR1); conditions: Compound concentration 1000.0 nM
[38] = target: Tyrosine-protein kinase SYK (Homo sapiens) (UniProt P43405); conditions: Compound concentration 1000.0 nM
[39] = target: TGF-beta receptor type-1 (Homo sapiens) (UniProt P36897); conditions: Compound concentration 1000.0 nM
[40] = target: High affinity nerve growth factor receptor (Homo sapiens) (UniProt P04629); conditions: Compound concentration 1000.0 nM
[41] = target: Serine/threonine-protein kinase ULK2 (Homo sapiens) (UniProt Q8IYT8); conditions: Compound concentration 1000.0 nM
[42] = target: Vascular endothelial growth factor receptor 2 (Homo sapiens) (UniProt P35968); conditions: Compound concentration 1000.0 nM
[43] = target: Wee1-like protein kinase 2 (Homo sapiens) (UniProt P0C1S8); conditions: Compound concentration 1000.0 nM
[44] = target: D(3) dopamine receptor (Homo sapiens) (UniProt P35462); conditions: Compound concentration 10.0 uM

Tyrosine-protein kinase Lyn (Homo sapiens), sequence (P07948 2-512 limits assumed): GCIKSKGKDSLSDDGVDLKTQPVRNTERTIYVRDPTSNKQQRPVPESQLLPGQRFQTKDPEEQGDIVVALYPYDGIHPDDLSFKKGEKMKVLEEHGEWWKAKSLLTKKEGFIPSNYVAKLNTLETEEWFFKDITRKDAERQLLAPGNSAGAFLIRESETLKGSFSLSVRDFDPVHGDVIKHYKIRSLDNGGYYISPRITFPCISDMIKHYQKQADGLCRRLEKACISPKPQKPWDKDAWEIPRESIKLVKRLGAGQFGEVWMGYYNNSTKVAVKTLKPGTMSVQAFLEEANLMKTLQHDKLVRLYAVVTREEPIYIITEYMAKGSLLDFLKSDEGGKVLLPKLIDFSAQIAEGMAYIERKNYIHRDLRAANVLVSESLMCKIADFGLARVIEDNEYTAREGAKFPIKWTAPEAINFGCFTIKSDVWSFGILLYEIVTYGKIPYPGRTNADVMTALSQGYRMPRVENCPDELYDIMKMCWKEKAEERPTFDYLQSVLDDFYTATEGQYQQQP
Protein-tyrosine kinase 6 (Homo sapiens), sequence (Q13882 whole entry, looked up): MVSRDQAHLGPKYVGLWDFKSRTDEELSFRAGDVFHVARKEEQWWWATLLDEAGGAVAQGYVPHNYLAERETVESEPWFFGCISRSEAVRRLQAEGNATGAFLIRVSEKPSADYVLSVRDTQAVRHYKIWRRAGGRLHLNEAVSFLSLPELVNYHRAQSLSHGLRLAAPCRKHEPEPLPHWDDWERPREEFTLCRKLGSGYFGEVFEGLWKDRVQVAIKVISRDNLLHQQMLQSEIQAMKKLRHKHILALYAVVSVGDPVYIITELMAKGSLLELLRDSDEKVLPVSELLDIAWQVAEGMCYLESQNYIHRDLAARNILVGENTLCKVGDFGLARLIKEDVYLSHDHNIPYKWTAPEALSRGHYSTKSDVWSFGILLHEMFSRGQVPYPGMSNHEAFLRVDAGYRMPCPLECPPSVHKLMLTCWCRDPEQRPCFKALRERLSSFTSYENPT
TGF-beta receptor type-1 (Homo sapiens), sequence (P36897 whole entry): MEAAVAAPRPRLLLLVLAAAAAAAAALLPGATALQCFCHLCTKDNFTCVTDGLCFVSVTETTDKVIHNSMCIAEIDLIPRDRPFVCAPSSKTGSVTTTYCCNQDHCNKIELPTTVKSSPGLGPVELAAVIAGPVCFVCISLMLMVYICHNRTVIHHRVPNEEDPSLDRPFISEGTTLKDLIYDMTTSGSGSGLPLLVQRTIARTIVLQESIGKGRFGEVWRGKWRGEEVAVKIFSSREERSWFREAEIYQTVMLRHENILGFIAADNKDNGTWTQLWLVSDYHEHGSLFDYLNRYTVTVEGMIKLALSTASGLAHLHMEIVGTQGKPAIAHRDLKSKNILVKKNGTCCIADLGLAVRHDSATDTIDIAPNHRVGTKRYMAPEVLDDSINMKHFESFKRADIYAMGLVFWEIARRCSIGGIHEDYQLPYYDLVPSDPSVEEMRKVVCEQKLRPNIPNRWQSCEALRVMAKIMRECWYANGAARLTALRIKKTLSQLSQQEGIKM
Ephrin type-B receptor 3 (Homo sapiens), sequence (P54753 whole entry): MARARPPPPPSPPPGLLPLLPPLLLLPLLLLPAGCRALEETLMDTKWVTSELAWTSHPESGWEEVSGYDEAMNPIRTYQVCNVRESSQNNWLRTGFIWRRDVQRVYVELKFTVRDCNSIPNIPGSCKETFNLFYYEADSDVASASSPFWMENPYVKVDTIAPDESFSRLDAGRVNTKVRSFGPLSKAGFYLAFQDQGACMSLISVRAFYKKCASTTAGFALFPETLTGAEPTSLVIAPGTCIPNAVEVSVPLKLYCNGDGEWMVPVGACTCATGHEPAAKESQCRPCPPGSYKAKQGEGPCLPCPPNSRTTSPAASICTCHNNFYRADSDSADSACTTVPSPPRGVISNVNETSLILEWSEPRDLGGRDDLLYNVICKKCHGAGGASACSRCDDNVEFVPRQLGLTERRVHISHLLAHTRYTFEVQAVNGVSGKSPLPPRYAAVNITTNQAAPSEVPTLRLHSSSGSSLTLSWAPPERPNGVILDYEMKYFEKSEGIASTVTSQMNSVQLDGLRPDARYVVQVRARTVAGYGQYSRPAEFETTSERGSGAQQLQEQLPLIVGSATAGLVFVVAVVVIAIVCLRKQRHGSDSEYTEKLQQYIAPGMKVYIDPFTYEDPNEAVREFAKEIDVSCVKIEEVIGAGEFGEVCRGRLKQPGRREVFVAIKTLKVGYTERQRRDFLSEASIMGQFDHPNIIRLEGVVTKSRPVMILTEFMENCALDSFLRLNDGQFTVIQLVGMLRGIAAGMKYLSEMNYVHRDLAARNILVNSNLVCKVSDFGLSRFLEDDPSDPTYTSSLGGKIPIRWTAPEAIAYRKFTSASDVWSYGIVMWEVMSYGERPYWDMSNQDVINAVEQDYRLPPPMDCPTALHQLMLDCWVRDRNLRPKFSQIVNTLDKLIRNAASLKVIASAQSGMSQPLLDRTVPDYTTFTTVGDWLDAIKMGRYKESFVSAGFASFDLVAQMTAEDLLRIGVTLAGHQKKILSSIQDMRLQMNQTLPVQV
Atypical kinase COQ8B, mitochondrial (Homo sapiens), sequence (Q96D53 whole entry): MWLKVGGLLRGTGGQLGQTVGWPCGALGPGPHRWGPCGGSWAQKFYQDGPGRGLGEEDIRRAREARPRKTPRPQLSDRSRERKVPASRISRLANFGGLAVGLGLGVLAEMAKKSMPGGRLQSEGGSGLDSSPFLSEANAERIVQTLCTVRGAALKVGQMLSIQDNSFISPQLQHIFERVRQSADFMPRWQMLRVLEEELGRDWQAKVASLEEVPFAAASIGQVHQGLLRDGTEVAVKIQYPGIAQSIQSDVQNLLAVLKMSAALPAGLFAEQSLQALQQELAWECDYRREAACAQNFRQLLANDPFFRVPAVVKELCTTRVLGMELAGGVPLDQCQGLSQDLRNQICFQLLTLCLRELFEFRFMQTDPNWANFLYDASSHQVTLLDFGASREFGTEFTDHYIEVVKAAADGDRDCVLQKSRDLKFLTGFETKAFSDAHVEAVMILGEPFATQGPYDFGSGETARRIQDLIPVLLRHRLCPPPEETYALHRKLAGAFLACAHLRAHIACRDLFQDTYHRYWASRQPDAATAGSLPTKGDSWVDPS
Serine/threonine-protein kinase Nek10 (Homo sapiens), sequence (Q6ZWH5 whole entry): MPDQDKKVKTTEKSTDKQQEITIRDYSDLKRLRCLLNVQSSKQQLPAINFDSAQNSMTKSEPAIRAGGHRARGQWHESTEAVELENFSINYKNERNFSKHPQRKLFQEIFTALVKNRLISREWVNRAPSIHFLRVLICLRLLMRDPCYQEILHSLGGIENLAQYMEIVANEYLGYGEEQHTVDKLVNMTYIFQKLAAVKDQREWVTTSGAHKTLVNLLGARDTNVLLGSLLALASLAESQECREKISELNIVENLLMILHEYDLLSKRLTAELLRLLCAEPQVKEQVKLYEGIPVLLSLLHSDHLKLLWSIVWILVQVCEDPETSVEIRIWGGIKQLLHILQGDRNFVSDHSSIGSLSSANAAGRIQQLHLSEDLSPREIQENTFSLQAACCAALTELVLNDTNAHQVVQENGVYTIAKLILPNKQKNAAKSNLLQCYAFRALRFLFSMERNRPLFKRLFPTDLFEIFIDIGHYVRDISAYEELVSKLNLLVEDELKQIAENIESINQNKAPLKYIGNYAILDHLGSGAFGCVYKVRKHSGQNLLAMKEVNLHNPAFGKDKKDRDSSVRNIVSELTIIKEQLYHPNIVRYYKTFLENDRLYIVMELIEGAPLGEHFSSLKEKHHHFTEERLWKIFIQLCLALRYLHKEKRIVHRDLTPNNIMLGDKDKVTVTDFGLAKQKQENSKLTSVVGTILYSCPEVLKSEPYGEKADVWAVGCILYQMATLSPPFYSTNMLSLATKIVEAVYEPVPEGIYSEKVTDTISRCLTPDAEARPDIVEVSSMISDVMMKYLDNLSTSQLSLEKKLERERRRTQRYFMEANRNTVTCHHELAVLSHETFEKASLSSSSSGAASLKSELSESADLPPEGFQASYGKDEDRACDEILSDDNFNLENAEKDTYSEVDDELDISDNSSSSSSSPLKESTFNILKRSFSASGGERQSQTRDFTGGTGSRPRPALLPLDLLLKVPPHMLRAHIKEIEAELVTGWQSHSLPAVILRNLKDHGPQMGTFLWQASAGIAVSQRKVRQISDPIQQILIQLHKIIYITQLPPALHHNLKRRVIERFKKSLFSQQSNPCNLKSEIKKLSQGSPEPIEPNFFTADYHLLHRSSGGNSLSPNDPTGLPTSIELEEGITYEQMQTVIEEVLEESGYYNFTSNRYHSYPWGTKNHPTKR
Mitogen-activated protein kinase 11 (Homo sapiens), sequence (Q15759 whole entry): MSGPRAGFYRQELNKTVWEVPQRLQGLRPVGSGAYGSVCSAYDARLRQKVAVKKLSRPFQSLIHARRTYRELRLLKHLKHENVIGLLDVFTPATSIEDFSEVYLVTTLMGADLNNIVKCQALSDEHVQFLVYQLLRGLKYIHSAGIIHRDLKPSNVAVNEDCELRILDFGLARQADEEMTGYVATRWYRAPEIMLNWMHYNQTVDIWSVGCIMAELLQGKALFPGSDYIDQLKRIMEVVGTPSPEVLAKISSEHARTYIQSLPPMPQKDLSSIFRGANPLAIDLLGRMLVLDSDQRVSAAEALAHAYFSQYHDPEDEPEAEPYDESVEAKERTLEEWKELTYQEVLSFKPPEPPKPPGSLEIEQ
Aurora kinase B, sequence (Q96GD4 whole entry): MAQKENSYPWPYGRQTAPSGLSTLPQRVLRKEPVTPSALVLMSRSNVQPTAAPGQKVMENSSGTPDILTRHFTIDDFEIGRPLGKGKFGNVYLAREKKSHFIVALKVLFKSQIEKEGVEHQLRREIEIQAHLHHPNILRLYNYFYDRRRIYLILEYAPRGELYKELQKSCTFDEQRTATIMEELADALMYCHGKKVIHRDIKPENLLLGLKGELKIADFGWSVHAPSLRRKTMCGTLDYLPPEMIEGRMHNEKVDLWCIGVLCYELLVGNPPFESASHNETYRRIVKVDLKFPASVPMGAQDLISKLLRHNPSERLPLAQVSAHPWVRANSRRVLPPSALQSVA

For `Cn1cncc1[C@@](O)(COc1ccc(C#N)cc1-c1ccc(OC(F)(F)F)cc1)c1ccc(C#N)cc1` [A-108], which residual activity [1] is on record?
The residual activity was 92%.

And the residual activity [2]?
Its residual activity is 95%.

What about the residual activity [3] of the same compound?
Its residual activity is 100%.

And the residual activity [4]?
The residual activity was 100%.

And the residual activity [5]?
Its residual activity is 100%.

What about the residual activity (Aurora kinase B) of the same compound?
The residual activity was 100%.

And the residual activity [6]?
The residual activity was 100%.

And the residual activity [7]?
The residual activity was 100%.

And the residual activity [8]?
The residual activity was 96%.

What about the residual activity [9] of the same compound?
The residual activity was 100%.

What about the residual activity [10] of the same compound?
The residual activity was 3%.

And the residual activity [11]?
The residual activity was 6%.

And the residual activity [12]?
Its residual activity is 93%.

And the residual activity [13]?
The residual activity was 100%.

What about the residual activity [14] of the same compound?
The residual activity was 100%.

And the residual activity [15]?
The residual activity was 100%.

And the residual activity [16]?
Its residual activity is 97%.

What about the residual activity [17] of the same compound?
The residual activity was 96%.

What about the residual activity [18] of the same compound?
Its residual activity is 73%.

And the residual activity [19]?
Its residual activity is 65%.

And the residual activity [20]?
The residual activity was 82%.

And the residual activity [21]?
Its residual activity is 100%.

What about the residual activity [22] of the same compound?
Its residual activity is 100%.

And the residual activity [23]?
The residual activity was 80%.

What about the residual activity [24] of the same compound?
The residual activity was 74%.

And the residual activity [25]?
Its residual activity is 100%.

What about the residual activity [26] of the same compound?
Its residual activity is 99%.

What about the residual activity [27] of the same compound?
Its residual activity is 100%.

What about the residual activity [28] of the same compound?
Its residual activity is 84%.

What about the residual activity [29] of the same compound?
Its residual activity is 87%.

And the residual activity [30]?
The residual activity was 100%.

And the residual activity [31]?
The residual activity was 96%.

What about the residual activity [32] of the same compound?
Its residual activity is 69%.

What about the residual activity [33] of the same compound?
The residual activity was 72%.

What about the residual activity [34] of the same compound?
The residual activity was 87%.

What about the residual activity [35] of the same compound?
The residual activity was 85%.

And the residual activity [36]?
Its residual activity is 89%.

What about the residual activity [37] of the same compound?
Its residual activity is 100%.

What about the residual activity [38] of the same compound?
Its residual activity is 100%.

And the residual activity [39]?
The residual activity was 78%.

And the residual activity [40]?
The residual activity was 91%.

What about the residual activity [41] of the same compound?
The residual activity was 100%.

And the residual activity [42]?
Its residual activity is 100%.

What about the residual activity [43] of the same compound?
The residual activity was 100%.

And the inhibition [44]?
The inhibition was 18.1%.

With `Cn1cncc1[C@](O)(COc1ccc(C#N)cc1-c1ccc(OC(F)(F)F)cc1)c1ccc(C#N)cc1` [ABT-100] as the compound, how does the residual activity [1] read?
The residual activity was 100%.

What about the residual activity [2] of the same compound?
The residual activity was 100%.

What about the residual activity [3] of the same compound?
The residual activity was 78%.

What about the residual activity [4] of the same compound?
Its residual activity is 72%.

What about the residual activity [5] of the same compound?
The residual activity was 84%.

What about the residual activity (Aurora kinase B) of the same compound?
The residual activity was 100%.

What about the residual activity [6] of the same compound?
Its residual activity is 100%.

What about the residual activity [7] of the same compound?
Its residual activity is 100%.

What about the residual activity [8] of the same compound?
Its residual activity is 94%.

And the residual activity [9]?
The residual activity was 100%.

What about the residual activity [10] of the same compound?
Its residual activity is 100%.

What about the residual activity [11] of the same compound?
The residual activity was 100%.

What about the residual activity [12] of the same compound?
Its residual activity is 93%.

And the residual activity [13]?
The residual activity was 83%.

What about the residual activity [14] of the same compound?
Its residual activity is 100%.

What about the residual activity [15] of the same compound?
The residual activity was 98%.

And the residual activity [16]?
The residual activity was 100%.

And the residual activity [17]?
Its residual activity is 93%.

What about the residual activity [18] of the same compound?
The residual activity was 83%.

What about the residual activity [19] of the same compound?
The residual activity was 91%.

And the residual activity [20]?
The residual activity was 72%.

What about the residual activity [21] of the same compound?
Its residual activity is 90%.

What about the residual activity [22] of the same compound?
The residual activity was 77%.

And the residual activity [23]?
Its residual activity is 90%.

What about the residual activity [24] of the same compound?
The residual activity was 94%.

And the residual activity [25]?
Its residual activity is 86%.

What about the residual activity [26] of the same compound?
Its residual activity is 100%.

And the residual activity [27]?
Its residual activity is 93%.

And the residual activity [28]?
The residual activity was 83%.

And the residual activity [29]?
The residual activity was 96%.

What about the residual activity [30] of the same compound?
Its residual activity is 100%.

What about the residual activity [31] of the same compound?
Its residual activity is 90%.

And the residual activity [32]?
The residual activity was 77%.

What about the residual activity [33] of the same compound?
Its residual activity is 100%.

And the residual activity [34]?
Its residual activity is 91%.

What about the residual activity [35] of the same compound?
The residual activity was 100%.

What about the residual activity [36] of the same compound?
Its residual activity is 82%.

And the residual activity [37]?
Its residual activity is 100%.

What about the residual activity [38] of the same compound?
The residual activity was 95%.

And the residual activity [39]?
The residual activity was 81%.

What about the residual activity [40] of the same compound?
Its residual activity is 91%.

What about the residual activity [41] of the same compound?
The residual activity was 100%.

What about the residual activity [42] of the same compound?
The residual activity was 96%.

And the residual activity [43]?
The residual activity was 84%.

What about the inhibition [44] of the same compound?
The inhibition was -9.46%.
